This is an account of results in patent publication US20230150974A1 (Foghorn Therapeutics Inc., priority 2020, published 2023).

Assay [1] addresses T1, HiBit-BRG1 (Homo sapiens, UniProt P51532).
T1 construct: expressed in transfected cells
Nature of the assay: HiBit-BRG1 cell-based degradation assay (Nano-Glo HiBiT Lytic Detection). To be noted: HeLa cells expressing HiBit-BRG1 and LgBit, 24 h; for DC50: read-out: BRG1 HiBit Degradation IC50; for Dmax: read-out: BRG1 HiBit Degradation Maximum (%). The protocol:
(§1) Procedure: A stable HeLa cell line expressing HiBiT-BRM was generated. On day 0, 5000 cells were seeded in 40 μL of media into each well of 384-well cell culture plates. […] Subsequently plates were incubated for 24 h in a standard tissue culture incubator and equilibrated at room temperature for 15 minutes. Nano-Glo HiBiT Lytic Detection System (Promega N3050) reagent was freshly prepared and 20 ul was added to each well. Upon addition of this LgBit-containing reagent, the HiBiT and LgBiT proteins associate to form the luminescent NanoBiT luciferase. The plates were shaken for 10 minutes at room temperature and the bioluminescence read using an EnVision plate reader (PerkinElmer).
For measurement of BRG1 degradation, a stable HeLa cell line expressing HiBit-BRG1 and LgBit was generated. The same protocol as above was then followed.
(§2) The degradation % was calculated using the following formula: % degradation=100%−100%×(LumSample−LumLC)/(LumHC−LumLC). DMSO treated cells are employed as High Control (HC) and 2 μM of a known BRM/BRG1 degrader standard treated cells are employed as Low Control (LC).
For orientation: With HiBiT, luminescence reflects the tagged protein that the partner subunit can reach.

In assay [2] the target is T2, HiBiT-BRM (Homo sapiens, UniProt P51531).
T2 construct: expressed in transfected cells
Nature of the assay: HiBiT-BRM cell-based degradation assay (Nano-Glo HiBiT Lytic Detection). The following applies: HeLa cells expressing HiBiT-BRM, 24 h; for DC50: read-out: BRM HiBit Degradation IC50. The protocol:
as §1, §2

T1 sequence (P51532 whole entry): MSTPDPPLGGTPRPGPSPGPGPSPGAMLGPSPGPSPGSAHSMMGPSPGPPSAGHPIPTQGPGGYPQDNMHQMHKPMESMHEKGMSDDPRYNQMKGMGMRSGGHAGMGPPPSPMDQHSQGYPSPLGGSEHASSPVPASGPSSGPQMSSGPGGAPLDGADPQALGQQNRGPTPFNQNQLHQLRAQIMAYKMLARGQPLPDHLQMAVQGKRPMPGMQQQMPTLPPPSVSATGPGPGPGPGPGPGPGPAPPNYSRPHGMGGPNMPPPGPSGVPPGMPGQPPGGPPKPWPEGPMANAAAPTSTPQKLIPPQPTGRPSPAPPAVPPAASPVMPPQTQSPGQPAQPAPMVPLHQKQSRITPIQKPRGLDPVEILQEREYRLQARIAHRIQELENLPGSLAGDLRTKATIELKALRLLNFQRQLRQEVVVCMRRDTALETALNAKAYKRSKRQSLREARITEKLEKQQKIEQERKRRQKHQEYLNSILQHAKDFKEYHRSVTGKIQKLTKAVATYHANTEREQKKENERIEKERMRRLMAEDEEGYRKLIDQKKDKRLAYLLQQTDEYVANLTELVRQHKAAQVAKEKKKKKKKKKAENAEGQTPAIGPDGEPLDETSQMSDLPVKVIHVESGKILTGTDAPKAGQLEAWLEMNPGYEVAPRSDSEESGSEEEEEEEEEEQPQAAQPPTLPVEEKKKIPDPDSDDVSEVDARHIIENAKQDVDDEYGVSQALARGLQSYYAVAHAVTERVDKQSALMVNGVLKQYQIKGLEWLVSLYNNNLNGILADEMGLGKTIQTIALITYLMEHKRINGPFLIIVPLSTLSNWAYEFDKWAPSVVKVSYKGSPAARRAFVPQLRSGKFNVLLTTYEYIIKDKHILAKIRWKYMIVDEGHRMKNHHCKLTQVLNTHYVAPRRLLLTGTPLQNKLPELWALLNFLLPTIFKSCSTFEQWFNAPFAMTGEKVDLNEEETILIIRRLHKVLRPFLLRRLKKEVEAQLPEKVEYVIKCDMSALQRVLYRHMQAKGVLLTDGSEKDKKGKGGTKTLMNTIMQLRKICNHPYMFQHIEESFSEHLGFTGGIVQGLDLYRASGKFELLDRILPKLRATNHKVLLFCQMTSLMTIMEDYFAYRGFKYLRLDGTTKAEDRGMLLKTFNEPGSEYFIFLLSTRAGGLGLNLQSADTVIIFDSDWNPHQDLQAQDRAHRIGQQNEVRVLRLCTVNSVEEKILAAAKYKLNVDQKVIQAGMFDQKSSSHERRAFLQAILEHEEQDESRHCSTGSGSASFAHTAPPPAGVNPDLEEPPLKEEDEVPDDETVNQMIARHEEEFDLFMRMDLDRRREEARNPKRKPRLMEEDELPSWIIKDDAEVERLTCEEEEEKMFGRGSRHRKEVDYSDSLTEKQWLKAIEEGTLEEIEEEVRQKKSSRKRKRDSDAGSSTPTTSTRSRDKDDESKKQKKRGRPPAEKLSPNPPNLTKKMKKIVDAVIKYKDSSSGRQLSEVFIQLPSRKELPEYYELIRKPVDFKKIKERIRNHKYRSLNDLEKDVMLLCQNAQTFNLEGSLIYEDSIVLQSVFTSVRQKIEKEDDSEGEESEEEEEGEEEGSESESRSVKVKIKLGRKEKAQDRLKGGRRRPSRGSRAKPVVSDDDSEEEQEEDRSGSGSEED
T2 sequence (P51531 whole entry): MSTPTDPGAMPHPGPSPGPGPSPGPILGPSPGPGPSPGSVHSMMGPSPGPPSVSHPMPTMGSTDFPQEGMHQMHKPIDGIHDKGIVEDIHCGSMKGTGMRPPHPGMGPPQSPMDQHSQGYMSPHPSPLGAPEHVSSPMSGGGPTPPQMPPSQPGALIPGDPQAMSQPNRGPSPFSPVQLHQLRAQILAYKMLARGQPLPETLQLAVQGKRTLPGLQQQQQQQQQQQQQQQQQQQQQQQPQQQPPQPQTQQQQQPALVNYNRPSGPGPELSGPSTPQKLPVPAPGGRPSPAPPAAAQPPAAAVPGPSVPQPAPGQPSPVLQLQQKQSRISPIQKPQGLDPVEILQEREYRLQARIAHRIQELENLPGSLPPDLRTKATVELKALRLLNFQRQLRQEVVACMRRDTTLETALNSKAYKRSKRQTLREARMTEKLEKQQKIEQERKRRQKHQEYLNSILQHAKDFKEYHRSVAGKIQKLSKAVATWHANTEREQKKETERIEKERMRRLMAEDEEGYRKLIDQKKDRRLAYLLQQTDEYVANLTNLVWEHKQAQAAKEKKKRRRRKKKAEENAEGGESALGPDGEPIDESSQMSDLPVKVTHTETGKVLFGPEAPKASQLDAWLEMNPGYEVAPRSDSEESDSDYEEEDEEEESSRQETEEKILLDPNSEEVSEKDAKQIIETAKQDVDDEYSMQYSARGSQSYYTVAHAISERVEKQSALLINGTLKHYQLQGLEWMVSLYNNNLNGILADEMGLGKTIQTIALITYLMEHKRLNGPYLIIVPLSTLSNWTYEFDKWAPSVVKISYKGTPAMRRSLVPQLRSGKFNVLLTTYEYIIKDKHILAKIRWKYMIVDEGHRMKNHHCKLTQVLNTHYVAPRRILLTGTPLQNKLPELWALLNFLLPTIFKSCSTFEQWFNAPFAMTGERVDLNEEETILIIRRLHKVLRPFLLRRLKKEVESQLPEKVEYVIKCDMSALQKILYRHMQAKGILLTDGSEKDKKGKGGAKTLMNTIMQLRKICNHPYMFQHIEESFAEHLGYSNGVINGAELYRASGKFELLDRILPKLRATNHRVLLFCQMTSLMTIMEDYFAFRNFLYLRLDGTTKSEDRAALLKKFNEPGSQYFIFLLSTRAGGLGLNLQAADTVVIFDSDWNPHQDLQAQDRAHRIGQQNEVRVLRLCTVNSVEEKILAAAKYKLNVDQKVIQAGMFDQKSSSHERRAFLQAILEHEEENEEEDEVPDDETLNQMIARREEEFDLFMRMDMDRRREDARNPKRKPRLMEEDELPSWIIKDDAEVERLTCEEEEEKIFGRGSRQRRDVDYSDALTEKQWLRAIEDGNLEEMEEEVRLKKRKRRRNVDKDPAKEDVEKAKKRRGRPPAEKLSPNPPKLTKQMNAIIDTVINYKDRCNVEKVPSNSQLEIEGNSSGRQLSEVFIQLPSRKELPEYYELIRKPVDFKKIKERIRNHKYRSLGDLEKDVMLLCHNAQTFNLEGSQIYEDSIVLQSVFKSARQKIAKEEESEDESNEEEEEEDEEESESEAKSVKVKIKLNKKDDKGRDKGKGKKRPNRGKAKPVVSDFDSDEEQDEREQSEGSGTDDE

For the compound `Cc1ncsc1-c1ccc(CNC(=O)[C@@H]2C[C@@H](O)CN2C(=O)[C@@H](NC(=O)COCCOCC(=O)NCc2ccc(CCOc3cc(-c4ccccc4O)nnc3N)cc2)C(C)(C)C)cc1` [Compound 164, (2S,4R)-1-((S)-1-(4-(2-((3-amino-6-(2-hydroxyphenyl)pyridazin-4-yl)oxy)ethyl)phenyl)-12-(tert-butyl)-3,10-dioxo-5,8-dioxa-2,11-diazatridecan-13-oyl)-4-hydroxy-N-(4-(4-methylthiazol-5-yl)benzyl)pyrrolidine-2-carboxamide], in assay [1], the DC50 was greater than 1000 nM and the Dmax was less than 50%. Moreover, in assay [2], the “BRM HiBit Degradation Maximum (%)” value was “B (“B” indicates maximum degradation ≥50%)” and the DC50 is greater than 1000 nM.
Turning to `Cc1ncsc1-c1ccc(CNC(=O)[C@@H]2C[C@@H](O)CN2C(=O)[C@@H](NC(=O)COCCOCCOCCOCCOCC(=O)NCc2ccc(CCOc3cc(-c4ccccc4O)nnc3N)cc2)C(C)(C)C)cc1` [Compound 168, N1-(4-(2-((3-amino-6-(2-hydroxyphenyl)pyridazin-4-yl)oxy)ethyl)benzyl)-N17-((S)-1-((2S,4R)-4-hydroxy-2-((4-(4-methylthiazol-5-yl)benzyl)carbamoyl)pyrrolidin-1-yl)-3,3-dimethyl-1-oxobutan-2-yl)-3,6,9,12,15-pentaoxaheptadecanedia], in assay [1], the DC50 was greater than 1000 nM and the Dmax was less than 50%. In assay [2], the “BRM HiBit Degradation Maximum (%)” value was “C (“C” indicates maximum degradation <50%)” and the DC50 was greater than 1000 nM.
`Nc1nnc(-c2ccccc2O)cc1N1CCN(C(=O)C2CC2CNC(=O)COc2ccc3c(c2)C(=O)N(C2CCC(=O)NC2=O)C3=O)CC1` (centres unmarked) [Compound 78, N-[(2-[4-[3-amino-6-(2-hydroxyphenyl)pyridazin-4-yl]piperazine-1-carbonyl]cyclopropyl)methyl]-2-[[2-(2,6-dioxopiperidin-3-yl)-1,3-dioxoisoindol-5-yl]oxy]acetamide]: the DC50 in assay [1] and in assay [2] was greater than 1000 nM in each case. Also, the “BRM HiBit Degradation Maximum (%)” value in assay [2] was “C (“C” indicates maximum degradation <50%)”.
Take `Cc1ncsc1-c1ccc(CNC(=O)[C@@H]2C[C@@H](O)CN2C(=O)[C@@H](NC(=O)CCCCN2CCN(CCOc3cc(N4[C@@H]5CC[C@H]4CN(c4cc(-c6ccccc6O)nnc4N)C5)ccn3)CC2)C(C)(C)C)cc1` [Compound 234, (2S,4R)-1-((2S)-2-(5-(4-(2-((4-(3-(3-amino-6-(2-hydroxyphenyl)pyridazin-4-yl)-3,8-diazabicyclo[3.2.1]octan-8-yl)pyridin-2-yl)oxy)ethyl)piperazin-1-yl)pentanamido)-3,3-dimethylbutanoyl)-4-hydroxy-N-(4-(4-methylthiazol-5-yl)benzyl)pyrrolidine-2-carboxamide]: in assay [1], the DC50 was greater than 1000 nM and the Dmax is less than 50%. In addition, in assay [2], the “BRM HiBit Degradation Maximum (%)” value is listed as “A (“A” indicates maximum degradation ≥75%)” and the DC50 was greater than 100 nM.
As to `Nc1nnc(-c2ccccc2O)cc1N1CCN(CCNC(=O)CCCCCCCCNc2ccc3c(c2)C(=O)N(C2CCC(=O)NC2=O)C3=O)CC1` (centres unmarked) [Compound 92], in assay [1], the DC50 is greater than 1000 nM and the Dmax was less than 50%. For the same compound, in assay [2], the “BRM HiBit Degradation Maximum (%)” value was “C (“C” indicates maximum degradation <50%)” and the DC50 is greater than 1000 nM.
Consider `Cc1ncsc1-c1ccc(CNC(=O)[C@@H]2C[C@@H](O)CN2C(=O)[C@@H](NC(=O)CCN2[C@@H]3CC[C@H]2CN(C(=O)c2ccc(CCOc4cc(-c5ccccc5O)nnc4N)cc2)C3)C(C)(C)C)cc1` [Compound 216, (2S,4R)-1-((2S)-2-(3-(3-(4-(2-((3-amino-6-(2-hydroxyphenyl)pyridazin-4-yl)oxy)ethyl)benzoyl)-3,8-diazabicyclo[3.2.1]octan-8-yl)propanamido)-3,3-dimethylbutanoyl)-4-hydroxy-N-(4-(4-methylthiazol-5-yl)benzyl)pyrrolidine-2-carboxamide], for which, in assay [1], the DC50 is greater than 1000 nM and the Dmax is less than 50%. For the same compound, in assay [2], the “BRM HiBit Degradation Maximum (%)” value is given as “C (“C” indicates maximum degradation <50%)” and the DC50 was greater than 1000 nM.
